From PubChem BioAssay AID2060618 (Molecular Pharmacology Branch, DTP, NCI, 2025)

Tested on: 454973-116-R2-J3-PDC spheroids, percent test/control viability
Test: Anticancer human tumor 454973-116-R2-J3-PDC patient-derived pancreatic carcinoma cell line growth inhibition [CLK]
Settings: spheroids with HUVEC and MSC; for IC50: curve of first compound; for viability, T/C: stronger effect = lower value
Excerpt: A high-throughput screen of multi-cell type tumor spheroids was designed to identify active combinations of […] and targeted small molecules. Complex spheroids include a stromal component modeled by human endothelial cells (HUVEC) and fibroblasts modeled by human mesenchymal stem cells (MSCs). The concentration ranges selected for each drug and investigational agent were based upon clinically achievable concentrations if the clinical Cmax of the agent was known.
Compounds. The drugs and investigational agents: cirtuvivint (SM08502; NSC835563), CC-671 (NSC850746), vemurafenib (NSC761431), tapotoclax (NSC804041), sotorasib (NSC818433), adagrasib (NSC831453), MRTX-1133 (NSC836407), BAY2416964 (NSC825713), copanlisib (NSC816437), inavolisib (NSC800729), abemaciclib (NSC768073), osimertinib (NSC779217), entinostat (NSC756642), eltanexor (KPT-8602, NSC794443), venetoclax (NSC766270), ceralasertib (NSC777638), bortezomib (NSC756655), olaparib (NSC753686), talazoparib (NSC767125), alisertib (NSC759677), peposertib (NSC802822), gemcitabine (NSC613327), 5-fluorouracil (NSC19893), SN-38 (NSC673596), oxaliplatin (NSC266046), paclitaxel (NSC125973), and doxorubicin (NSC123127), were obtained from the National Cancer Institute (NCI) Developmental Therapeutics Program Chemical Repository. The FDA-approved anticancer drug set is available from the Developmental Therapeutics Program at https://dtp.cancer.gov/organization/dscb/obtaining/available plates.htm. […] The stock solutions were prepared in dimethyl sulfoxide (DMSO, Sigma-Aldrich, St. Louis, MO, cat. D2650), except for the platinum complexes which were prepared in saline (Quality Biological, Gaithersburg, MD, cat. 114-055-101), at 800-fold the tested concentration and stored at -70 degrees C prior to their use. All drugs and investigational agents were tested over a range starting from a high concentration at or near the clinical Cmax and decreasing in half-log increments. If the clinical Cmax for an agent had not been determined, the highest concentration tested was 10 microM.
Cell Culture. All cells were maintained in an incubator at 37 degrees C and 5% CO2 with 95% humidity. The PDC lines were cultured according to standard operating procedures established by the NCI PDMR. Briefly, all PDCs were thawed and cultured in Matrigel-coated flasks prepared with a working solution of 1X Ham's F-12 nutrient mix, without supplementation (Invitrogen, Waltham, MA, cat. 11765054), 100 U/mL penicillin-streptomycin (Invitrogen, cat. 15140122), and 2.5% Matrigel (Corning Inc., Corning, NY, cat. 354248) for the first three passages. The 947758-054-R-J2-PDC line was cultured in 6B/Colon 1A media, which includes advanced DMEM/F-12 (Thermo Fisher Scientific, cat. 12634028), 10 mM HEPES (Thermo Fisher Scientific, cat. 15630080), 1X GlutaMAX supplement (Thermo Fisher Scientific, cat. 35050061), 0.1 mg/mL primocin (InvivoGen, cat. ant-pm-2), 10% defined fetal bovine serum, heat inactivated (HyClone Laboratories Inc., cat. SH30070.03HI), 1.25 mM N-Acetyl-L-cysteine (Sigma-Aldrich, cat. A9165), 10 mM nicotinamide (Sigma-Aldrich, cat. N0636), 1X B-27 supplement (Thermo Fisher Scientific, cat. 17504044), 1X N-2 supplement (Thermo Fisher Scientific, cat. 17502048), and 10 microM Y-27632 dihydrochloride (Tocris Bioscience, cat. 1254). The 876862-298-R-J1-PDC was cultured in 6E media, which includes all 6B/Colon 1A media components plus 50% L-WRN conditioned media (ATCC, cat. CRL-3276), 50 ng/mL recombinant human EGF recombinant protein (hEGF; Thermo Fisher Scientific, cat. PHG0311), 10 ng/mL recombinant human fibroblast growth factor 10 (hGFG-10; PeproTech, cat. 100-26), 1 ng/mL recombinant human fibroblast growth factor 2 (hFGF-2; PeproTech, cat. 100-18B), and 1 µM prostaglandin E2 (PGE2; Tocris, cat. 2296). The 227483-062-R1-J1-PDC line was cultured in Panc media, containing all 6E components except hFGF-2, with the addition of 500 nM SB-431542 (Selleckchem, cat. S1067) and 10 nM gastrin (Tocris, cat. 3006). […]

[1] = second compound 0.0316 µM, first compound 0.0316 µM
[2] = second compound 0.0316 µM, first compound 0.1 µM
[3] = second compound 0.0316 µM, first compound 0.316 µM
[4] = second compound 0.0316 µM, first compound 1 µM
[5] = second compound 0.0316 µM, first compound 3.16 µM
[6] = second compound 0.0316 µM, first compound 10 µM
[7] = second compound 0.1 µM, first compound 0.0316 µM
[8] = second compound 0.1 µM, first compound 0.1 µM
[9] = second compound 0.1 µM, first compound 0.316 µM
[10] = second compound 0.1 µM, first compound 1 µM
[11] = second compound 0.1 µM, first compound 3.16 µM
[12] = second compound 0.1 µM, first compound 10 µM
[13] = second compound 0.316 µM, first compound 0.0316 µM
[14] = second compound 0.316 µM, first compound 0.1 µM
[15] = second compound 0.316 µM, first compound 0.316 µM
[16] = second compound 0.316 µM, first compound 1 µM
[17] = second compound 0.316 µM, first compound 3.16 µM
[18] = second compound 0.316 µM, first compound 10 µM
[19] = second compound 1 µM, first compound 0.0316 µM
[20] = second compound 1 µM, first compound 0.1 µM
[21] = second compound 1 µM, first compound 0.316 µM
[22] = second compound 1 µM, first compound 1 µM
[23] = second compound 1 µM, first compound 3.16 µM
[24] = second compound 1 µM, first compound 10 µM
[25] = second compound 3.16 µM, first compound 0.0316 µM
[26] = second compound 3.16 µM, first compound 0.1 µM
[27] = second compound 3.16 µM, first compound 0.316 µM
[28] = second compound 3.16 µM, first compound 1 µM
[29] = second compound 3.16 µM, first compound 3.16 µM
[30] = second compound 3.16 µM, first compound 10 µM
[31] = second compound 10 µM, first compound 0.0316 µM
[32] = second compound 10 µM, first compound 0.1 µM
[33] = second compound 10 µM, first compound 0.316 µM
[34] = second compound 10 µM, first compound 1 µM
[35] = second compound 10 µM, first compound 3.16 µM
[36] = second compound 10 µM, first compound 10 µM
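Further: spheroids exposed to compounds for 7 days before readout.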

SMILES: C=C(F)C(=O)N1CCN(c2nc(OCC3CCCN3C)nc3c2CCN(c2cccc4cccc(Cl)c24)C3)CC1CC#N (centres undefined) + CN1CCN(c2cc(C(=O)Nc3cc4cc(-c5cnn(C)c5)ccc4cn3)ccn2)CC1
- IC50 (second compound 0.0316 µM): 5760 nM
- IC50 (second compound 0.1 µM): 4990 nM
- IC50 (second compound 0.316 µM): < 31.6 nM
- IC50 (second compound 1 µM): < 31.6 nM
- IC50 (second compound 3.16 µM): < 31.6 nM
- IC50 (second compound 10 µM): < 31.6 nM
- viability, T/C [1]: 97.8%
- viability, T/C [2]: 109%
- viability, T/C [3]: 98.9%
- viability, T/C [4]: 101%
- viability, T/C [5]: 101%
- viability, T/C [6]: 3.09%
- viability, T/C [7]: 75.4%
- viability, T/C [8]: 82.9%
- viability, T/C [9]: 80.2%
- viability, T/C [10]: 81%
- viability, T/C [11]: 91.9%
- viability, T/C [12]: 0.93%
- viability, T/C [13]: 1.92%
- viability, T/C [14]: 2.64%
- viability, T/C [15]: 2.38%
- viability, T/C [16]: 2.24%
- viability, T/C [17]: 1.56%
- viability, T/C [18]: 0.09%
- viability, T/C [19]: 0.15%
- viability, T/C [20]: 0.21%
- viability, T/C [21]: 2.03%
- viability, T/C [22]: 0.11%
- viability, T/C [23]: 0.1%
- viability, T/C [24]: 1.24%
- viability, T/C [25]: 0.17%
- viability, T/C [26]: 2.27%
- viability, T/C [27]: 0.55%
- viability, T/C [28]: 0.15%
- viability, T/C [29]: 0.12%
- viability, T/C [30]: 1%
- viability, T/C [31]: 1.46%
- viability, T/C [32]: 0.37%
- viability, T/C [33]: 0.27%
- viability, T/C [34]: 0.68%
- viability, T/C [35]: 0.23%
- viability, T/C [36]: 0.25%

SMILES: C=CC(=O)N1CCN(c2nc(=O)n(-c3c(C)ccnc3C(C)C)c3nc(-c4c(O)cccc4F)c(F)cc23)C(C)C1 (centres undefined) + CN1CCN(c2cc(C(=O)Nc3cc4cc(-c5cnn(C)c5)ccc4cn3)ccn2)CC1
- IC50 (second compound 0.0316 µM): > 10000 nM
- IC50 (second compound 0.1 µM): > 10000 nM
- IC50 (second compound 0.316 µM): < 31.6 nM
- IC50 (second compound 1 µM): < 31.6 nM
- IC50 (second compound 3.16 µM): < 31.6 nM
- IC50 (second compound 10 µM): < 31.6 nM
- viability, T/C [1]: 97%
- viability, T/C [2]: 99.5%
- viability, T/C [3]: 103%
- viability, T/C [4]: 110%
- viability, T/C [5]: 110%
- viability, T/C [6]: 119%
- viability, T/C [7]: 87.6%
- viability, T/C [8]: 88.4%
- viability, T/C [9]: 92.6%
- viability, T/C [10]: 87.1%
- viability, T/C [11]: 98.4%
- viability, T/C [12]: 54.7%
- viability, T/C [13]: 2.25%
- viability, T/C [14]: 2.21%
- viability, T/C [15]: 6.18%
- viability, T/C [16]: 2.73%
- viability, T/C [17]: 4.43%
- viability, T/C [18]: 2.46%
- viability, T/C [19]: 0.13%
- viability, T/C [20]: 1.49%
- viability, T/C [21]: 1.16%
- viability, T/C [22]: 0.14%
- viability, T/C [23]: 0.16%
- viability, T/C [24]: 1.96%
- viability, T/C [25]: 1.3%
- viability, T/C [26]: 0.21%
- viability, T/C [27]: 4.08%
- viability, T/C [28]: 0.17%
- viability, T/C [29]: 4.42%
- viability, T/C [30]: 1.08%
- viability, T/C [31]: 1.96%
- viability, T/C [32]: 0.63%
- viability, T/C [33]: 0.4%
- viability, T/C [34]: 0.69%
- viability, T/C [35]: 0.61%
- viability, T/C [36]: 0.21%
